Experimental data taken from patent publication US7833972B2, “Proteins and use thereof” (Takeda Pharmaceutical Company Limited, priority 2002, dated 2010).
Counter-ions that a name gives are not always drawn.

Key:
SST8-5 = test: Expression of SST8-5 mRNA in 3T3-L1 cell by an insulin sensitizer (TaqMan PCR); format: cell-based, mouse; conditions: 10 μM, 72 hours in differentiation medium in the presence of insulin; 36B4 mRNA internal standard
Method: Analysis of Expression of Novel Secretory or Membrane Protein Gene by an Insulin Sensitizer 3T3-L1 cell was inoculated into 6-well plate at 4×10^5 cells/well of cell number and incubated on DMEM (Invitrogen) medium containing 10% fetal bovine serum (Invitrogen) at 37° C. for 5 days. The medium was exchanged to a differentiation medium [DMEM medium containing 250 nM dexamethasone (Sigma), 0.5 mM 1-methyl-3-isobutyl xanthine (Wako Pure Chemical Industries, Ltd.), 10 μg/ml insulin (Sigma) and 10% fetal bovine serum]. In exchanging the medium to the differentiation medium, pioglitazone hydrochloride (10 μM, Takeda Pharmaceutical Company, Ltd.) which is an insulin sensitizer was added to the medium, and incubated for 72 hours in the presence of insulin. After completing incubation, the medium was washed with PBS (Invitrogen), and the cells were collected. Total RNA was gathered from the collected cells using RNAeasy kit (Qiagen) according to the instructions attached to the kit. Using the gathered total RNA, expression amounts of SST8-5 and mRNA of 36B4 which is used as internal standard were quantified by TaqMan PCR (Applied Biosystems). As a result, the expression amount of SST8-5 increased 2.4-fold by addition of pioglitazone hydrochloride as compared with control (pioglitazone hydrochloride free).

SST20-14 = test: Expression of SST20-14 mRNA in 3T3-L1 cell by insulin resistance inducing factor (TaqMan PCR); format: cell-based, mouse
Method: Analysis of Expression of Novel Secretory or Membrane Protein Gene by Insulin Resistance Inducing Factor
3T3-L1 cell was inoculated into 6-well plate at 4×10^5 cells/well of cell number and incubated on DMEM (Invitrogen) medium containing 10% fetal bovine serum (Invitrogen) at 37° C. for 5 days. The medium was exchanged to a differentiation medium [DMEM medium containing 250 nM dexamethasone (Sigma), 0.5 mM 1-methyl-3-isobutyl xanthine (Wako Pure Chemical Industries, Ltd.), 10 μg/ml insulin (Sigma) and 10% fetal bovine serum] and further incubated for 24 hours. In exchanging the medium to the differentiation medium, each of TNF-α (Genzyme Techne) at the concentration of 1 nM, 100 pM and 10 pM was added to the medium at the same time. After completing incubation, the medium was washed with PBS (Invitrogen), and the cells were collected. Total RNA was gathered from the collected cells using RNAeasy kit (Qiagen) according to the instructions attached to the kit. Using the gathered total RNA, expression amounts of SST20-14 and mRNA of 36B4 which is used as internal standard were quantified by TaqMan PCR (Applied Biosystems).

3T3-L1 cell = test: Differentiation of preadipocyte strain 3T3-L1 into mature adipocyte (oil red-O staining of lipid drop accumulation); format: cell-based; conditions: 3T3-L1 cell overexpressing SST20-14 (pCMV-SST20-14, Long form cDNA); differentiation medium 72 hours then 8 days; qualitative, microscopic observation
Method: Analysis of Action for Differentiation of Preadipocyte Strain 3T3-L1 into Mature Adipocyte
3T3-L1 cell was inoculated into 6-well plate at 2×10^5 cells/well of cell number, and incubated on DMEM (Invitrogen) medium containing 10% fetal bovine serum (Invitrogen) at 37° C. for 7 days, incubation solution was suctioned, and the well was washed twice with PBS (Invitrogen), and then 2 ml/well of OPTI-MEM (Invitrogen) was added thereto. OPTI-MEM (100 μl) and FuGENE™6 (10 μl, Roche) were mixed and stood still at room temperature for 5 minutes. Thereto was added […] of construct for expression pCMV-SST20-14 prepared by inserting SST20-14 (Long form) cDNA into EcoRI-HindIII cloning site of pCMV-Tag4A (Sigma) which is an expression plasmid, and the mixed solution was stood still at room temperature for 45 minutes. The solution containing the expression construct was added to the above-mentioned 3T3-L1 cell, and incubated at 37° C. for 6 hours, and then incubated on DMEM medium containing 10% fetal bovine serum at 37° C. for 40 hours. Then, the medium was exchanged to a differentiation medium [DMEM medium containing 250 nM dexamethasone (Sigma), 0.5 mM 1-methyl-3-isobutyl xanthine (Wako Pure Chemical Industries, Ltd.), 10 μg/ml insulin (Sigma) and 10% fetal bovine serum] and incubated for 72 hours. […]

`CCc1ccc(CCOc2ccc(CC3SC(=O)NC3=O)cc2)nc1` (stereo not shown) [pioglitazone hydrochloride] was tested. Which “increase of expression amount of SST8-5 as compared with control (pioglitazone hydrochloride free)” value (SST8-5) did it give?
The value was 2.4 fold.

What does the source list for TNF-α?
reduction of expression amount of SST20-14 as compared with control (TNF-α free) (SST20-14; 1 nM TNF-α for 24 hours in differentiation medium, 36B4 mRNA internal standard): about 70%; change of expression amount of SST20-14 with TNF-α concentration (SST20-14; TNF-α 1 nM, 100 pM and 10 pM, 24 hours in differentiation medium): changed depending on added TNF-α concentration

B1: SST20-14: mouse white adipose tissue-derived secretory or membrane protein, SEQ ID NO: 2; overexpressed from pCMV-SST20-14 construct (protein, listed as Mus musculus)
chain: MAGSRGLPLLLLVLQLFLGPVLPVRAPVFGRSDTPTLSPEENEFVEEENQPVLVLSSEEPEPGPATVDCPRDCACSQEGVVDCGGIDLREFPGDLPEHTNHLSLQNNQLEKIYPEELSRLQRLETLNLQNNRLTSRGLPEEAFEHLTSLNYLYLANNKLTLAPRFLPNALISVDFAANYLTKIYGLTFGQKPNLRSVYLHNNKLADAGLPDHMFNGSSNVEILILSSNFLRHVPKHLPPALYKLHLKNNKLEKIPPGAFSELSNLRELYLQNNYLTDEGLDNETFWKLSSLEYLDLSSTNLSRVPAGLPRSLVLLHLEKNAIQSVEADVLTPIRNLEYLLLHSNQLQAKGIHPLAFQGLKKLHTVHLYNNALERVPSGLPRRVRTLMILHNQITGIGREDFATTYFLEELNLSYNRITSPQMHRDAFRKLRLLRSLDLSGNRLQTLPPGLPKNVHVLKVKRNELAALARGALAGMAQLRELYLTGNRLRSRALGPRAWVDLAGLQLLDIAGNQLTEVPEGLPPSLEYLYLQNNKISAVPANAFDSTPNLKGIFLRFNKLAVGSVVESAFRRLKHLQVLDIEGNFEFGNGSKDKDEEEEEEEEEEDEEEETR
How did the “accumulation of lipid drop as compared with control 3T3-L1 cell” value (3T3-L1 cell) turn out when B1 was run?
Its value is “reduced to a half or less”.
